Values after ≈ are worked out from the molar mass of the structure shown.
Experiments:
[1] = system: Plasmodium falciparum; assay: Antiplasmodial activity against Plasmodium falciparum strain NF54 assessed as 99% parasite clearance time in presence of 2% haematocrit and 0.5 % parasitemia at 10 times EC50 followed by media with compound exchanged daily measured after 2 weeks by standard hypoxanthine assay; format: functional
[2] = Cytotoxicity against human HepG2 cells measured after 72 hrs by hoechst 33342 staining based imaging assay; format: toxicity, cell-based
[3] = Lipophilicity, logD of compound at pH 7.4; details: buffer
[4] = Metabolic stability in human liver microsomes assessed as half life
[5] = Metabolic stability in human liver microsomes assessed as apparent intrinsic clearance
[6] = Metabolic stability in rat hepatocytes assessed as half life
[7] = Metabolic stability in rat hepatocytes assessed as apparent intrinsic clearance measured per 10^6 cells
[8] = system: Plasmodium falciparum; assay: microbe, parasite or virus in culture; format: functional, organism-based; details: W2, 72 h, read-out: pEC50 (converted)
[9] = Aqueous solubility of compound at pH 7.4; details: buffer

SMILES	Time [1] [h]	CC50 at 72 h ([2]; read-out: CC50) [µM]	CC50 at 72 h ([2]; read-out: pCC50 (converted)) [µM]	logD [3]	half-life [4] [min]	microsomal CLint [5] [µL/min/mg]	half-life [6] [min]	CLH(app) [7] [µL/min]	EC50 [8] [nM]	solubility [9] [µM]
CCc1nc(N)nc(N)c1-c1ccc(Cl)cc1 [PYRIMETHAMINE]	25.9	–	–	–	–	–	–	–	–	–
Cc1ccc(-c2cncc(C(=O)N(C)c3ccc(Cl)cc3)c2)cc1	–	> 10	> 10	4.32	6.1	228	< 7.5	> 92.4	–	–
Cc1ccc(N(C)C(=O)c2ncn(-c3ccc(C)cc3)n2)cc1	–	> 10	> 10	3.15	11.1	125	< 7.5	> 92.4	1740	–
Cc1ccc(N(C)C(=O)c2ncn(-c3ccc(Cl)cc3)n2)cc1	–	> 10	> 10	3.36	33.8	41.1	< 7.5	> 92.4	562	4.4 (≈ 1.44 µg/mL)
